Active and inactive are the calls of the source. The calls are words filed in the database; no cut-off is given here.
What was measured:
[1] = Herbicidal activity against broadleaf weeds; assay type: functional
[2] = system: Spinacia oleracea; experiment: Inhibition of Spinacia oleracea (spinach) chloroplast isoleucyl tRNA synthetase at 1 uM
[3] = system: Poaceae; experiment: Herbicidal activity against Poaceae (grass) weeds; assay type: functional, organism-based

inhibition [2] | SMILES | Activity [1] | Activity [3]
inactive | CCOC(=O)/C=C(/C)C[C@H]1OC[C@H](C/C=C/[C@@H](C)[C@H](C)O)CO1 | inactive | inactive
inactive | COC(=O)/C=C(/C)Cc1cccc(C[C@@H]2O[C@H]2[C@@H](C)[C@H](C)O)c1 | inactive | inactive
inactive | CCOC(=O)/C=C(\C)C[C@H]1OC[C@@H](C/C=C/[C@@H](C)[C@H](C)O)CO1 | inactive | inactive
inactive | CCOC(=O)/C=C(\C)C[C@H]1OC[C@H](C/C=C/[C@@H](C)[C@H](C)O)CO1 | inactive | inactive
75% | C/C(=C\C(=O)OCCCCCCCCC(=O)O)C[C@@H]1OC[C@H](C[C@@H]2O[C@H]2[C@@H](C)[C@H](C)O)[C@@H](O)[C@H]1O |  | 

The next lines start with the molecule.

SMILES | inhibition [2] | Activity [1] | Activity [3]
COC(=O)/C=C(/C)Cc1cccc(C/C=C/[C@@H](C)[C@H](C)O)c1 | inactive | inactive | inactive
COC(=O)/C=C(\C)Cc1cccc(C/C=C/[C@@H](C)[C@H](C)O)c1 | inactive | inactive | inactive
CCOC(=O)c1cccc(-c2cccc(C/C=C/[C@@H](C)[C@H](C)O)c2)c1 | inactive | inactive | inactive
COC(=O)/C=C(/C)Cc1cccc(C[C@H]2O[C@@H]2[C@@H](C)[C@H](C)O)c1 | inactive | inactive | inactive
COC(=O)/C=C(\C)Cc1cccc(C[C@@H]2O[C@H]2[C@@H](C)[C@H](C)O)c1 | inactive | inactive | inactive
CCOC(=O)c1cccc(-c2cccc(C[C@H]3O[C@@H]3[C@@H](C)[C@H](C)O)c2)c1 | inactive | inactive | inactive
CCOC(=O)c1cccc(-c2cccc(C[C@@H]3O[C@H]3[C@@H](C)[C@H](C)O)c2)c1 | inactive | inactive | inactive
COC(=O)/C=C(\C)Cc1cccc(C[C@H]2O[C@@H]2[C@@H](C)[C@H](C)O)c1 | inactive | inactive | inactive
